Here are results for two compounds from patent EP1336602A1, “Nitrate prodrugs able to release nitric oxide in a controlled and selective way and their use for prevention and treatment of inflammatory, ischemic and proliferative diseases” (Scaramuzzino, Giovanni, priority 2002, dated 2003).

For series [1] the following is noted: male, Wistar, in vivo, po, 1.09 mg/kg.
Series [2] deals with S-nitrosohemoglobin (SNO-Hb). The series is described as follows: S-nitrosohemoglobin (SNO-Hb) levels in rat blood, photolysis-chemiluminescence. It counts as in vivo, Sprague-Dawely rats. The following applies: 100 mg/Kg i.p., versus endogenous levels. As to the method:
A highly sensitive photolysis-chemiluminescence methodology was used. Nitric oxide, released from Hb-SNO through photolysis, was detected in a chemiluminescence spectrometer by reaction with ozone (McMahon, T. J., and Stamler, J. S. (1999) Methods Enzymol. 301, 99-114).
Blood was obtained from the left ventricle (arterial) and jugular vein (venous) of anesthetized Sprague-Dawely rats: 12 were controls and 12 were treated with 100 mg/Kg of N-[4-(5-p-tolyl-3-trifluoromethyl-1H-pyrazol-1-yl)phenylsulfonyl]-p-nitroxymethylbenzamide (Ela). Red blood cells were isolated by centrifugation at 800 g, washed three times in phosphate buffered saline at 4 °C, lysed by the addition of 4-fold excess volume of deionized water containing 0.5 mM EDTA and desalted rapidly according to the method of Penefsky at 4 °C.
In 24 rats, Hb samples were divided in two aliquots which were then treated or not treated with 10-fold excess HgCl2 which can remove the signal of Hb(Fell)NO.

The structures appear in SMILES notation.

Regarding `C[C@@H]1C[C@H]2[C@@H]3CCC4=CC(=O)C=C[C@]4(C)[C@@]3(F)[C@@H](O)C[C@]2(C)[C@@]1(O)C(=O)COC(=O)c1ccc(CO[N+](=O)[O-])cc1` [ECXCa, (11β,16α)-9-fluoro-11,17-dihydroxy-21-(p-nitroxymethylbenzoyloxy)-pregna-1,4-diene-3,20-dione], the “Rat arterial blood pressure” value in series [1] is reported as 100%.

Take `Cc1ccc(-c2cc(C(F)(F)F)nn2-c2ccc(S(=O)(=O)NC(=O)c3ccc(CO[N+](=O)[O-])cc3)cc2)cc1` [Ela, N-[4-(5-p-tolyl-3-trifluoromethyl-1H-pyrazol-1-yl)phenylsulfonyl]-p-nitroxymethylbenzamide]: the “S-nitrosohemoglobin (SNO-Hb) levels in rat arterial blood” value in series [2] (arterial blood (left ventricle)) is reported as “significantly increase”. Further, the “S-nitrosohemoglobin (SNO-Hb) levels in rat venous blood” value in series [2] (venous blood (jugular vein)) is reported as “significantly increase”.
